This passage reports GI50 results from patent US10342796B2, “Acrylanilide derivative, preparation method, and applications thereof in pharmacy” (Ancureall Pharmaceutical (Shanghai) Co., Ltd., priority 2015, dated 2019).

Structures are written as SMILES. Like-named read-outs stand apart in the source and are kept apart here.

What all share (experiment): Growth inhibition GI50 in vitro (CCK8/MTT, 72 h)
Assay type in all cases: cell-based, human

Assay [1] deals with A431 (EGFR WT, amplification and high expression). Particulars: Homo sapiens, A-431; EGFR wild type cell line; range of GI50; read-out: GI50 A431. An excerpt:
(§1) EGFR wild type cell lines: human epidermal cancer cell line A431 (EGFR WT, amplification and high expression, from Shanghai Cell Bank of Chinese Academy of Sciences and ATCC), NSCLC cell lines NCI-H460 (EGFR WT, Kras G61H and PI3KCA E545K mutants, ATCC) and NCI-H1299 (EGFR WT, ATCC), melanoma cell line A375 (EGFR WT and BRAF V600E mutant, from Shanghai Cell Bank of Chinese Academy of Sciences, ATCC), human lung cancer cell line NCI-H292 (EGFR WT, from human lung mucoepidermoid carcinoma/lymphatic metastasis, purchased from Shanghai Cell Bank of Chinese Academy of Sciences) were cultured with 1×RPMI1640 complete medium which was supplement with 10% FBS. NSCLC cell line A549 (EGFR WT and Kras G12S mutant, from Shanghai Cell Bank of Chinese Academy of Sciences) was cultured with 1×Ham'S F12K complete medium which was supplement with 10% FBS, 1% double-antibiotics and 2 mM glutamine.
(§2) The suspension cells were collected by centrifugation. The supernatant was discard and the cell pellet was resuspended and counted. Different cell concentrations (5˜10×10^4 cells/mL) were prepared according to the growth cycle of each cell line and then seeded on a 96-well plate (Corning), 100 μL/well. The cells were incubated over night at 37° C., 5% CO2. The compounds were added to the cells on the second day with 2 wells in parallel. The final concentration of organic solvent shall not exceed 1%. The cells were continually incubated for 72 h, and then subjected to MTT assay.
(§3) The present compounds and the reference compounds were dissolved with DMSO (Sigma), respectively. […] The storage concentration of compounds was 10 mM and kept at −20° C. They were diluted by 2 times or 10 times with serial dilution before using.
(§4) Dojindo CCK8 reagent kit was used as MTT assay. […] FC meter was used as microplate reader.
(§5) Adherent cell culture medium was discard and immediately replaced with fresh prepared medium which contains 10% CCK8 reagent (100 μL/well). For the suspension cells, CCK8 was directly added to 10% of the final concentration. The cells were continually incubated for 1˜4 h. When the color of control wells turned to dark yellow, the absorption value was measured at OD450 nm. The cell growth rate was calculated according to the following formula: cell growth rate (%)=100*(T−T0)/(C−T0), T=optical density of drug treatment cell well—optical density of blank control well; T0=optical density of cell well before drug treatment—optical density of blank control well; C=optical density of cell well of solvent control group—optical density of blank control well. […] The experiment was independently repeated 1˜3 times, and subject to biological statistical analysis.

In the next assay the test system is SK-BR-3 (Her2 amp). The following applies: Homo sapiens, SK-BR-3; HER2 positive cell line; range of GI50; read-out: GI50 SK-BR-3. Here is the method: Human lung adenocarcinoma cell line Calu-3 (ATCC) was cultured with 1×MEM complete medium (10% FBS, 1% double-antibiotics, 1% NEAA (Gibco), 2 mM glutamine and 1 mM of sodium pyruvate). Human breast cancer cell line SK-BR-3 was cultured with McCOY'S5A complete medium (10% FBS). Human colon cancer cell line SNU1040 (HER2 V777M positive) (ATCC) and human bronchoalveolar adenocarcinoma cell line NCI-H1781 (expressing HER2 exon 20 G776VC mutation) (ATCC) were cultured with 1×RPMI1640 complete medium (10% FBS), respectively.
as §2, §3, §4, §5

In another assay the test system is AU565 (Her2 amp). The following applies: Homo sapiens, AU565; HER2 positive cell line; range of GI50; read-out: GI50 AU-565.
For another assay, the system named is H1975 (EGFR L858R/T790M). The following applies: Homo sapiens, NCI-H1975. Here is the method: (§6) PC-9ER is an acquired Erlotinib resistance cell line of PC-9 cells developed by the investor. […] The four cell lines above were cultured with 1×RPMI1640 complete medium (supplement with 10% FBS). Human colon cancer cell line SW48 (EGFR G719S positive, ATCC). was cultured with L15 complete medium (10% FB S).
as §2, §3, §4, §5

The subject of another assay is HCC827 (EGFR dE746-A750). Particulars: Homo sapiens, HCC827; EGFR mutant cell line; range of GI50; read-out: GI50 HCC827. As for the experimental part:
as §6, §2, §3, §4, §5

The next assay has as its system PC-9 (EGFR dE746-A750). Particulars: Homo sapiens. As for the experimental part: as §6, §2, §3, §4, §5
The next assay relates to N87 (HER2 Amp). Particulars: Homo sapiens.
Another assay has as its system A549 (EGFR WT). The following applies: Homo sapiens, A549; Table 13, 72 h; read-out: Range of GI50 A549 (EGFR WT).
Source text: as §1, §2, §3, §4, §5

The mark [2] stands for this setting: EGFR mutant cell line, range of GI50, read-out: GI50 H1975.
Setting [3] is: EGFR mutant cell line, range of GI50, read-out: GI50 PC-9.
Setting [4] is: HER2 positive cell line, range of GI50, read-out: GI50 N87.
The mark [5] stands for this setting: Table 13, 72 h, read-out: Range of GI50 H1975 (EGFR L858R/T790M).
Setting [6] is: Table 13, 72 h, read-out: Range of GI50 PC-9 (EGFR dE746-A750).
Where [7] appears, read: Table 13, 72 h, read-out: Range of GI50 N87 (HER2 Amp).

On to `C=CC(=O)Nc1cc(Nc2ncnc(Nc3cccc(Br)c3)n2)c(OC)cc1N1CCC(N2CCCCC2)CC1` [Compound 119, N-{2-[1,4′]-piperidin-1′-yl-5-[4-(3-bromo-phenylamino)-[1,3,5]triazin-2-amino]-4-methoxyl-phenyl}-acrylamide], for which the GI50 in assay [1] was 100 to 1000 nM; with SK-BR-3 (Her2 amp) it was 10 to 100 nM; with AU565 (Her2 amp), under 10 nM; with H1975 (EGFR L858R/T790M) (setting [2]), under 10 nM; with HCC827 (EGFR dE746-A750), under 10 nM; with PC-9 (EGFR dE746-A750) (setting [3]) it was under 10 nM. In the assay with N87 (HER2 Amp) (setting [4]), the GI50 was under 10 nM.

On to `C=CC(=O)Nc1cc(Nc2ncnc(Nc3cccc(Br)c3)n2)c(OC)cc1N1CCCN(C)CC1` [Compound 130, N-[5-[4-(3-bromo-phenylamino)-[1,3,5]triazin-2-ylamino]-4-methoxyl-2-(4-methyl-[1,4]diazepane-1-yl)-phenyl]-acrylamide], for which the GI50 in assay [1] was 100 to 1000 nM; with SK-BR-3 (Her2 amp) it was 10 to 100 nM; in the assay with AU565 (Her2 amp), under 10 nM; in the assay on H1975 (EGFR L858R/T790M) (setting [2]), 10 to 100 nM; in the assay on HCC827 (EGFR dE746-A750), under 10 nM; in the assay with PC-9 (EGFR dE746-A750) (setting [3]) it was 10 to 100 nM. In addition, the GI50 with N87 (HER2 Amp) (setting [4]) was under 10 nM.

Regarding `C=CC(=O)Nc1cc(Nc2nccc(-n3ccc4c(OC)cccc43)n2)c(OC)cc1N1CCC(N2CCN(C)CC2)CC1` [Compound 208, N-(5-(4-(4-methoxyl-1H-indol-1-yl)-pyrimidin-2-ylamino)-2-(4-(4-methyl-piperazin-1-yl)-piperidin-1-yl)-4-methoxyl-phenyl)-acrylamide], the GI50 is over 1000 nM with A549 (EGFR WT), 100 to 1000 nM with H1975 (EGFR L858R/T790M) (setting [5]), 100 to 1000 nM in the assay on PC-9 (EGFR dE746-A750) (setting [6]) and 10 to 100 nM in the assay with N87 (HER2 Amp) (setting [7]).

Take `C=CC(=O)Nc1cc(Nc2cc(Nc3ccc(OC)c(Cl)c3)ncn2)c(OC)cc1N1CCN(C2CCN(C)CC2)CC1` [Compound 227, N-(5-(6-(3-chloro-4-methoxyl-phenylamino)-pyrimidin-4-ylamino)-2-(4-(1-methylpiperidin-4-yl)-piperazin-1-yl)-4-methoxyl-phenyl)-acrylamide]: the GI50 is over 1000 nM in the assay with A549 (EGFR WT), 100 to 1000 nM in the assay with H1975 (EGFR L858R/T790M) (setting [5]), under 10 nM in the assay with PC-9 (EGFR dE746-A750) (setting [6]) and 10 to 100 nM in the assay on N87 (HER2 Amp) (setting [7]).

For the compound `C=CC(=O)Nc1cc(Nc2cc(Nc3cc(OC)c(Cl)cc3Cl)ncn2)c(OC)cc1N1CCC(N2CCOCC2)CC1` [Compound 240, N-(5-(6-(2,4-dichloro-5-methoxyl-phenylamino)-pyrimidin-4-yl-amino)-2-(4-(morpholin-1-yl)-piperidin-1-yl)-4-methoxyl-phenyl)-acrylamide], the GI50 in the assay with A549 (EGFR WT) is over 1000 nM; in the assay with H1975 (EGFR L858R/T790M) (setting [5]), 10 to 100 nM; with PC-9 (EGFR dE746-A750) (setting [6]) it was under 10 nM; in the assay on N87 (HER2 Amp) (setting [7]), under 10 nM.

`C=CC(=O)Nc1cc(Nc2cc(Nc3ccc(OC)c(S(=O)(=O)NC)c3)ncn2)c(OC)cc1N(C)CCN(C)C` [Compound 238]: the GI50 with A549 (EGFR WT) was over 1000 nM; with H1975 (EGFR L858R/T790M) (setting [5]), 100 to 1000 nM; in the assay on PC-9 (EGFR dE746-A750) (setting [6]) it was 100 to 1000 nM; in the assay with N87 (HER2 Amp) (setting [7]), 100 to 1000 nM.

On to `C=CC(=O)Nc1cc(Nc2cc(Nc3ccc(OC(F)(F)F)c(Cl)c3)ncn2)c(OC)cc1N(C)CCN(C)C` [Compound 235, N-(5-(6-(3-chloro-4-trifluoromethoxy-phenylamino)-pyrimidin-4-yl-amino)-2-((2-dimethylamino-ethyl)-methyl-amino)-4-methoxyl-phenyl)-acrylamide], for which the GI50 is over 1000 nM in the assay with A549 (EGFR WT), 10 to 100 nM in the assay on H1975 (EGFR L858R/T790M) (setting [5]), 10 to 100 nM in the assay on PC-9 (EGFR dE746-A750) (setting [6]) and 10 to 100 nM in the assay on N87 (HER2 Amp) (setting [7]).
